Test results reported in patent EP2468718A1, “Cabanillasin, a new antifungal compound, produced by entomopathogenic xenorhabdus cabanillasii” (Nosopharm, priority 2010, dated 2012).
≈ marks a conversion by molar mass, not a printed value. Where “and” joins values, the source holds several entries; their conditions need not be identical. Identical values can stand only once. Like-named read-outs stand apart in the source and are kept apart here.

How the values were obtained:
Assay type in all cases: cell-based
[1] = test system: hTERT HME-1 (Human normal mammary epithelium); assay: Cytotoxicity test (MTT); details: 48 h exposure, triplicate
Description: (§1) One hundred microliters of the cell suspension of PC-3 (Human prostatic carcinoma) or hTERT HME-1 (Human normal mammary epithelium) prepared in RPMI + 10% SVF + 1% glutamine were inoculated into 96-well plates. The inoculating cell number was 3500 cells per well for PC-3 and 7500 cells per well for hTERT HME-1. The microplates were incubated at 37°C for 24h with 5% of CO2. After 24 h of culture, the medium was removed by aspiration and 100 µl of RPMI + 10% SVF + 1% glutamine with 8 concentrations of Cabanillasin (from 0.78 µg/mL to 100 µg/mL) were added to each well. Microplates were incubated at 37°C for 48 h with 5% of CO2. After 48h of culture, the medium was removed by aspiration and 100 µL of RPMI + MTT (0.5 mg/mL) were added to each wells. Microplates were inoculated at 37°C during 150 min. Next, all the medium was removed by inverting and tapping the plate and 100 µL of DMSO were added in each plate. The spectrophotometric absorbance was then measured at 550 nm. The Lethal Dose 50 correspond to DL50 = ((50-(Y2-((Y1-Y2)/(X1-X2))*X2))/ ((Y1-Y2)/(X1-X2))). […] Experiments were done in triplicate.

[2] = test system: PC-3 (Human prostatic carcinoma); assay: Cytotoxicity test (MTT); details: 48 h exposure, triplicate
Description: as §1

[3] = test system: Candida Glabrata ATCC 90030; assay: Antifungal susceptibility testing, NCCLS M27-A2 broth microdilution (yeasts); details: Nakaseomyces glabratus, ATCC90030; for inhibition at 0.09 µg/mL / inhibition at 0.19 µg/mL / inhibition at 0.39 µg/mL / inhibition at 0.78 µg/mL / inhibition at 1.56 µg/mL / inhibition at 3.12 µg/mL / inhibition at 6.25 µg/mL / inhibition at 12.5 µg/mL / inhibition at 25 µg/mL / inhibition at 50 µg/mL: read-out: % of growth inhibition
[4] = test system: Cryptococcus neoformans clinical strain; assay: as above; details: for inhibition at 0.09 µg/mL / inhibition at 0.19 µg/mL / inhibition at 0.39 µg/mL / inhibition at 0.78 µg/mL / inhibition at 1.56 µg/mL / inhibition at 3.12 µg/mL / inhibition at 6.25 µg/mL / inhibition at 12.5 µg/mL / inhibition at 25 µg/mL / inhibition at 50 µg/mL: read-out: % of growth inhibition
[5] = test system: Candida lusitaniae CBS 6936; assay: as above; details: Clavispora lusitaniae, CBS6936; for inhibition at 0.09 µg/mL / inhibition at 0.19 µg/mL / inhibition at 0.39 µg/mL / inhibition at 0.78 µg/mL / inhibition at 1.56 µg/mL / inhibition at 3.12 µg/mL / inhibition at 6.25 µg/mL / inhibition at 12.5 µg/mL / inhibition at 25 µg/mL / inhibition at 50 µg/mL: read-out: % of growth inhibition

CC(=O)NC(=N)NCCCCNC(=N)NCCCCNC(=N)NCCCCNC(=N)NCCCCN [Cabanillasin]
LD 50 [1]: 24.46 ± 2.51 µg/mL and 24.46 µg/mL | LD 50 [2]: 46.83 ± 1.55 µg/mL and 46.83 µg/mL | inhibition at 0.09 µg/mL ([3]; 24 h incubation): 0% | inhibition at 0.09 µg/mL ([3]; 48 h incubation): 0% | inhibition at 0.19 µg/mL ([3]; 24 h incubation): 5.5% | inhibition at 0.19 µg/mL ([3]; 48 h incubation): 0% | inhibition at 0.39 µg/mL ([3]; 24 h incubation): 11.4% | inhibition at 0.39 µg/mL ([3]; 48 h incubation): 0% | inhibition at 0.78 µg/mL ([3]; 24 h incubation): 15.5% | inhibition at 0.78 µg/mL ([3]; 48 h incubation): 0% | inhibition at 1.56 µg/mL ([3]; 24 h incubation): 28% | inhibition at 1.56 µg/mL ([3]; 48 h incubation): 0% | inhibition at 3.12 µg/mL ([3]; 24 h incubation): 31% | inhibition at 3.12 µg/mL ([3]; 48 h incubation): 0% | inhibition at 6.25 µg/mL ([3]; 24 h incubation): 49.3% | inhibition at 6.25 µg/mL ([3]; 48 h incubation): 0% | inhibition at 12.5 µg/mL ([3]; 24 h incubation): 66.2% | inhibition at 12.5 µg/mL ([3]; 48 h incubation): 18.5% | inhibition at 25 µg/mL ([3]; 24 h incubation): 61.4% | inhibition at 25 µg/mL ([3]; 48 h incubation): 44% | inhibition at 50 µg/mL ([3]; 24 h incubation): 59% | inhibition at 50 µg/mL ([3]; 48 h incubation): 57% | IC50 ([3]; 24 h of incubation): 6.25 mg/L (≈ 12.2 µM) | inhibition at 0.09 µg/mL ([4]; 48 h incubation): 0% | inhibition at 0.09 µg/mL ([4]; 72 h incubation): 0% | inhibition at 0.19 µg/mL ([4]; 48 h incubation): 0% | inhibition at 0.19 µg/mL ([4]; 72 h incubation): 0% | inhibition at 0.39 µg/mL ([4]; 48 h incubation): 0% | inhibition at 0.39 µg/mL ([4]; 72 h incubation): 0% | inhibition at 0.78 µg/mL ([4]; 48 h incubation): 0% | inhibition at 0.78 µg/mL ([4]; 72 h incubation): 0% | inhibition at 1.56 µg/mL ([4]; 48 h incubation): 0% | inhibition at 1.56 µg/mL ([4]; 72 h incubation): 0% | inhibition at 3.12 µg/mL ([4]; 48 h incubation): 23.8% | inhibition at 3.12 µg/mL ([4]; 72 h incubation): 0% | inhibition at 6.25 µg/mL ([4]; 48 h incubation): 32% | inhibition at 6.25 µg/mL ([4]; 72 h incubation): 0% | inhibition at 12.5 µg/mL ([4]; 48 h incubation): 47.3% | inhibition at 12.5 µg/mL ([4]; 72 h incubation): 0% | inhibition at 25 µg/mL ([4]; 48 h incubation): 65.3% | inhibition at 25 µg/mL ([4]; 72 h incubation): 0% | inhibition at 50 µg/mL ([4]; 48 h incubation): 63.8% | inhibition at 50 µg/mL ([4]; 72 h incubation): 0% | IC50 ([4]; after 48 h): 25 mg/L (≈ 48.9 µM) | IC50 ([4]; after 72 h): > 50 mg/L | inhibition at 0.09 µg/mL ([5]; 24 h incubation): 11.7% | inhibition at 0.09 µg/mL ([5]; 48 h incubation): 0% | inhibition at 0.19 µg/mL ([5]; 24 h incubation): 14.5% | inhibition at 0.19 µg/mL ([5]; 48 h incubation): 0% | inhibition at 0.39 µg/mL ([5]; 24 h incubation): 11.5% | inhibition at 0.39 µg/mL ([5]; 48 h incubation): 0% | inhibition at 0.78 µg/mL ([5]; 24 h incubation): 20.2% | inhibition at 0.78 µg/mL ([5]; 48 h incubation): 0% | inhibition at 1.56 µg/mL ([5]; 24 h incubation): 64.8% | inhibition at 1.56 µg/mL ([5]; 48 h incubation): 0% | inhibition at 3.12 µg/mL ([5]; 24 h incubation): 86.7% | inhibition at 3.12 µg/mL ([5]; 48 h incubation): 57% | inhibition at 6.25 µg/mL ([5]; 24 h incubation): 94.7% | inhibition at 6.25 µg/mL ([5]; 48 h incubation): 74.6% | inhibition at 12.5 µg/mL ([5]; 24 h incubation): 97.7% | inhibition at 12.5 µg/mL ([5]; 48 h incubation): 86.1% | inhibition at 25 µg/mL ([5]; 24 h incubation): 100% | inhibition at 25 µg/mL ([5]; 48 h incubation): 95.9% | inhibition at 50 µg/mL ([5]; 24 h incubation): 100% | inhibition at 50 µg/mL ([5]; 48 h incubation): 100% | IC50 ([5]; 24 h of incubation): 1.56 mg/L (≈ 3.05 µM) | MIC ([5]; 24 h of incubation, 100% of growth inhibition): 25 mg/L (≈ 48.9 µM)
